# Data reported in patent US20140045189A1 (priority 2009, published 2014).
# Like-named read-outs stand apart in the source and are kept apart here.
# What was measured:
# Salmonella Typhimurium = settings: 30 min, TSA-Y, control […]10^9 CFU/ml
# Description: (§1) Listeria monocytogenes EGDe (1/2a, internal number 2964) is used as a model organism for Gram-positive bacteria and as a DNA quantification standard for real-time PCR. Salmonella enterica serovar Typhimurium (NCTC 12023) is used as a model organism for Gram-negative bacteria and as a DNA quantification standard for real-time PCR. The bacteria are maintained at −80° C. using MicroBank™ technology (Pro-Lab Diagnostics, Richmont Hill, Canada) and are part of the collection of bacterial strains at the Institute of Milk Hygiene, Milk Technology and Food Science, University of Veterinary Medicine, Vienna, Austria. All bacterial strains are grown overnight in tryptone soya broth with 0.6% (w/v) yeast extract (TSB-Y; Oxoid, Hampshire, United Kingdom) at the respective optimal growth temperatures (37° C., L. monocytogenes and 42° C., S. Typhimurium).
# (§2) The influence of different MgCl2 concentrations on the viability of Listeria monocytogenes and Salmonella Typhimurium is investigated. The target organisms are incubated for 30 min with 3 different concentrations of MgCl2 (1 M, 2 M and 3 M) and at 3 different temperatures (35° C., 38° C. and 45° C.) and the CFUs on TSA-Y agar plates after the treatment are compared with the control sample.
# Listeria monocytogenes = settings: 30 min, TSA-Y, control 2.78×10^9 CFU/ml
# Description: as §1, §2
compound,measurement,setting,value
"[Cl-].[Cl-].[Mg+2] [MgCl2, magnesium chloride]",CFU/ml of S. Typhimurium after treatment,"Salmonella Typhimurium; 1 M MgCl2, 35° C.",1.15×10^9 CFU/ml
same,CFU/ml of S. Typhimurium after treatment,"Salmonella Typhimurium; 1 M MgCl2, 38° C.",8.33×10^8 CFU/ml
same,CFU/ml of S. Typhimurium after treatment,"Salmonella Typhimurium; 1 M MgCl2, 45° C.",4.1×10^8 CFU/ml
same,CFU/ml of S. Typhimurium after treatment,"Salmonella Typhimurium; 2 M MgCl2, 35° C.",2.3×10^8 CFU/ml
same,CFU/ml of S. Typhimurium after treatment,"Salmonella Typhimurium; 2 M MgCl2, 38° C.",1.35×10^8 CFU/ml
same,CFU/ml of S. Typhimurium after treatment,"Salmonella Typhimurium; 3 M MgCl2, 35° C.",5.75×10^7 CFU/ml
same,CFU/ml of S. Typhimurium after treatment,"Salmonella Typhimurium; 3 M MgCl2, 38° C.",2.0×10^7 CFU/ml
same,CFU/ml of L. monocytogenes after treatment,"Listeria monocytogenes; 1 M MgCl2, 35° C.",3.86×10^9 CFU/ml
same,CFU/ml of L. monocytogenes after treatment,"Listeria monocytogenes; 1 M MgCl2, 38° C.",4.06×10^9 CFU/ml
same,CFU/ml of L. monocytogenes after treatment,"Listeria monocytogenes; 1 M MgCl2, 45° C.",4.39×10^9 CFU/ml
same,CFU/ml of L. monocytogenes after treatment,"Listeria monocytogenes; 2 M MgCl2, 35° C.",3.10×10^9 CFU/ml
same,CFU/ml of L. monocytogenes after treatment,"Listeria monocytogenes; 2 M MgCl2, 38° C.",3.64×10^9 CFU/ml
same,CFU/ml of L. monocytogenes after treatment,"Listeria monocytogenes; 2 M MgCl2, 45° C.",1.68×10^9 CFU/ml
same,CFU/ml of L. monocytogenes after treatment,"Listeria monocytogenes; 3 M MgCl2, 35° C.",1.76×10^9 CFU/ml
same,CFU/ml of L. monocytogenes after treatment,"Listeria monocytogenes; 3 M MgCl2, 38° C.",8.5×10^8 CFU/ml
same,CFU/ml of L. monocytogenes after treatment,"Listeria monocytogenes; 3 M MgCl2, 45° C.",1.5×10^8 CFU/ml
